Source: patent US20230066946A1, “1,5-DIPHENYLPYRAZOLYL-3-OXYALKYL ACIDS AND 1-PHENYL-5-THIENYLPYRAZOLYL-3-OXYALKYL ACIDS AND THE USE THEREOF FOR CONTROL OF UNWANTED PLANT GROWTH” (Bayer Aktiengesellschaft, priority 2019, published 2023)

Experiments:
STEME [1] = test: Post-emergence herbicidal action against STEME; format: in vivo, Stellaria media; details: visual rating about 3 weeks after treatment
Summary of the method: (§1)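 Visual % damage (100% = dead, 0% = like untreated control) was scored about 3 weeks after foliar spraying of one-leaf-stage plants grown in sandy loam. Doses were 1280 or 320 g/ha, applied as aqueous WP/EC preparations with 0.5% additive in 600 litres per hectare water.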

harmful plants [2] = test: Pre-emergence herbicidal action, summary of Tables 4.1-4.15; format: in vivo; details: result in words
Summary of the method: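 Percent herbicidal action (100% = plants dead, 0% = like controls) was assessed visually about 3 weeks after treatment. Application rates of 1280 or 320 g/ha were applied to the covering soil of freshly sown sandy-loam pots, in 600 l/ha water with 0.5% additive, before emergence.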

AMARE [3] = test: Post-emergence herbicidal action against AMARE; format: in vivo, Amaranthus retroflexus; details: visual rating about 3 weeks after treatment
Summary of the method: as §1

MATIN [4] = test: Post-emergence herbicidal action against MATIN; format: in vivo, Matricaria inodora; details: visual rating about 3 weeks after treatment
Summary of the method: as §1

AMARE [5] = test: Pre-emergence herbicidal action against AMARE; format: in vivo, Amaranthus retroflexus; details: scored visually after about 3 weeks vs untreated controls; for Pre-emergence action at 320 g/ha against AMARE in %: 100% = plants have died, 0% = like control plants; for Pre-emergence action against AMARE in %: 1280 g/ha
Summary of the method: (§2)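 Pre-emergence, sandy loam, pots doubly sown. WP/EC formulations + 0.5% additive, 600 L/ha water, sprayed on soil surface; 1280 or 320 g/ha. Greenhouse ~3 wk; visual % effect vs untreated.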

PHBPU [6] = test: Pre-emergence herbicidal action against PHBPU; format: in vivo, Pharbitis purpurea; details: 1280 g/ha, scored visually after about 3 weeks vs untreated controls
Excerpt: (§3) Seeds of mono- and dicotyledonous weed plants are placed in plastic pots in sandy loam soil (doubly sown with one species each of mono- or dicotyledonous weed plants per pot) and covered with soil. The compounds of the invention, formulated in the form of wettable powders (WP) or as emulsion concentrates (EC), are then applied onto the surface of the covering soil as aqueous suspension or emulsion with addition of 0.5% additive at a water application rate equivalent to 600 litres per hectare. After the treatment, the pots are placed in a greenhouse and kept under good growth conditions for the trial plants. After about 3 weeks, the effect of the preparations is scored visually in comparison with untreated controls as percentages. For example, 100% activity=the plants have died, 0% activity=like control plants. [table] Tables 4.1-4.15 below show the effects of selected compounds of the general formula (I) according to Tables 1 to 3 on various harmful plants at an application rate corresponding to 1280 or 320 g/ha, which have been obtained by the aforementioned experimental method.

ECHCG [7] = test: Post-emergence herbicidal action against ECHCG; format: in vivo, Echinochloa crus-galli; details: 1280 g/ha, post-emergence at one-leaf stage, rated visually after about 3 weeks vs untreated controls
Summary of the method: as §1

PHBPU [8] = test: Post-emergence herbicidal action against PHBPU; format: in vivo, Pharbitis purpurea; details: 320 g/ha, visual rating about 3 weeks after treatment
Summary of the method: as §1

harmful plants [9] = test: Post-emergence herbicidal action, summary of Tables 5.1-5.16; format: in vivo; details: result in words
Procedure: Seeds of mono- and dicotyledonous weed plants are placed in plastic pots in sandy loam soil (twin sowing with one species each of mono- or dicotyledonous weed plants per pot), covered with soil and cultivated in a greenhouse under controlled growth conditions. 2 to 3 weeks after sowing, the test plants are treated at the one-leaf stage. The compounds of the invention, formulated in the form of wettable powders (WP) or as emulsion concentrates (EC), are applied to the green parts of the plants as aqueous suspension or emulsion with addition of 0.5% additive at a water application rate equivalent to 600 litres per hectare. After the test plants have been kept in the greenhouse under optimum growth conditions for about 3 weeks, the activity of the preparations is rated visually in comparison to untreated controls. For example, 100% activity=the plants have died, 0% activity=like control plants. Tables 5.1-5.16 below show the effects of selected compounds of the general formula (I) according to Tables 1 to 3 on various harmful plants at an application rate corresponding to 1280 or 320 g/ha, which have been obtained by the aforementioned experimental method. As the results from Tables 5.1-5.16 show, compounds of the invention have good herbicidal post-emergence efficacy against a broad spectrum of weed grasses and weeds. […] For example, compounds Nos. I-002, I-006, I-022, I-056 and I-072 applied by the post-emergence method have very good herbicidal action (80% to 100% herbicidal action) against harmful plants such as Alopecurus myosuroides, Amaranthus retroflexus, Matricaria inodora, Setaria viridis, Pharbitis purpurea and Stellaria media at an application rate of 1.28 kg of active substance or less per hectare.

CYPES = test: Pre-emergence herbicidal action against CYPES; format: in vivo, Cyperus esculentus; details: scored visually after about 3 weeks vs untreated controls, 100% = plants have died, 0% = like control plants
Excerpt: as §3

VERPE [10] = test: Pre-emergence herbicidal action against VERPE; format: in vivo, Veronica persica; details: 320 g/ha, scored visually after about 3 weeks vs untreated controls
Summary of the method: as §2

MATIN [11] = test: Pre-emergence herbicidal action against MATIN; format: in vivo, Matricaria inodora; details: 1280 g/ha, scored visually after about 3 weeks vs untreated controls
Excerpt: as §3

STEME [12] = test: Pre-emergence herbicidal action against STEME; format: in vivo, Stellaria media; details: 1280 g/ha, scored visually after about 3 weeks vs untreated controls
Summary of the method: as §2

AVEFA = test: Post-emergence herbicidal action against AVEFA; format: in vivo, Avena fatua; details: 1280 g/ha, post-emergence at one-leaf stage, rated visually after about 3 weeks vs untreated controls
Procedure: (§4) [table] Seeds of mono- and dicotyledonous weed plants are placed in plastic pots in sandy loam soil (twin sowing with one species each of mono- or dicotyledonous weed plants per pot), covered with soil and cultivated in a greenhouse under controlled growth conditions. 2 to 3 weeks after sowing, the test plants are treated at the one-leaf stage. The compounds of the invention, formulated in the form of wettable powders (WP) or as emulsion concentrates (EC), are applied to the green parts of the plants as aqueous suspension or emulsion with addition of 0.5% additive at a water application rate equivalent to 600 litres per hectare. After the test plants have been kept in the greenhouse under optimum growth conditions for about 3 weeks, the activity of the preparations is rated visually in comparison to untreated controls. For example, 100% activity=the plants have died, 0% activity=like control plants. Tables 5.1-5.16 below show the effects of selected compounds of the general formula (I) according to Tables 1 to 3 on various harmful plants at an application rate corresponding to 1280 or 320 g/ha, which have been obtained by the aforementioned experimental method.

VIOTR [13] = test: Post-emergence herbicidal action against VIOTR; format: in vivo, Viola tricolor; details: 320 g/ha, visual rating about 3 weeks after treatment
Summary of the method: as §1

VERPE [14] = test: Post-emergence herbicidal action against VERPE; format: in vivo, Veronica persica; details: 320 g/ha, visual rating about 3 weeks after treatment
Summary of the method: as §1

SETVI [15] = test: Pre-emergence herbicidal action against SETVI; format: in vivo, Setaria viridis; details: 1280 g/ha, scored visually after about 3 weeks vs untreated controls
Summary of the method: as §2

POLCO [16] = test: Post-emergence herbicidal action against POLCO; format: in vivo, Polygonum convolvulus; details: 320 g/ha, visual rating about 3 weeks after treatment
Summary of the method: as §1

ALOMY [17] = test: Post-emergence herbicidal action against ALOMY; format: in vivo, Alopecurus myosuroides; details: 1280 g/ha, post-emergence at one-leaf stage, rated visually after about 3 weeks vs untreated controls
Procedure: as §4

SETVI [18] = test: Post-emergence herbicidal action against SETVI; format: in vivo, Setaria viridis; details: 1280 g/ha, post-emergence at one-leaf stage, rated visually after about 3 weeks vs untreated controls
Summary of the method: as §1

VIOTR [19] = test: Pre-emergence herbicidal action against VIOTR; format: in vivo, Viola tricolor; details: 1280 g/ha, scored visually after about 3 weeks vs untreated controls
Excerpt: as §3

ECHCG [20] = test: Pre-emergence herbicidal action against ECHCG; format: in vivo, Echinochloa crus-galli; details: scored visually after about 3 weeks vs untreated controls, 100% = plants have died, 0% = like control plants
Summary of the method: as §2

POLCO [21] = test: Pre-emergence herbicidal action against POLCO; format: in vivo, Polygonum convolvulus; details: 320 g/ha, scored visually after about 3 weeks vs untreated controls
Summary of the method: as §2

ALOMY [22] = test: Pre-emergence herbicidal action against ALOMY; format: in vivo, Alopecurus myosuroides; details: scored visually after about 3 weeks vs untreated controls, 100% = plants have died, 0% = like control plants
Excerpt: as §3

Row | SMILES | Post-emergence action against STEME in % (STEME [1]; 320 g/ha) [%] | Post-emergence action against STEME in % (STEME [1]; 1280 g/ha) [%] | herbicidal efficacy against harmful plants in the case of pre-emergence treatment (harmful plants [2]) | Post-emergence action against AMARE in % (AMARE [3]; 1280 g/ha) [%] | Post-emergence action against MATIN in % (MATIN [4]; 320 g/ha) [%] | Post-emergence action against MATIN in % (MATIN [4]; 1280 g/ha) [%] | Pre-emergence action at 320 g/ha against AMARE in % (AMARE [5]) [%] | Pre-emergence action against AMARE in % (AMARE [5]) [%] | Pre-emergence action against PHBPU in % (PHBPU [6]) [%] | Post-emergence action against ECHCG in % (ECHCG [7]) [%] | Post-emergence action against PHBPU in % (PHBPU [8]) [%] | Pre-emergence action at 1280 g/ha against CYPES in % (CYPES) [%] | Pre-emergence action against VERPE in % (VERPE [10]) [%] | Pre-emergence action against MATIN in % (MATIN [11]) [%] | Pre-emergence action against STEME in % (STEME [12]) [%] | Post-emergence action against AMARE in % (AMARE [3]; 320 g/ha) [%] | Post-emergence action against AVEFA in % (AVEFA) [%] | Post-emergence action against VERPE in % (VERPE [14]) [%] | Pre-emergence action against SETVI in % (SETVI [15]) [%] | Pre-emergence action against VIOTR in % (VIOTR [19]) [%] | also measured
1 | COC(=O)COc1nn(-c2cccc(F)c2)c(-c2cccc(F)c2)c1Cl [I-003] | 80 | 80 | good herbicidal efficacy | 80 | 80 | 80 | 100 | 100 | 80 | 80 | 80 | 100 | 100 | 100 | 100 |  |  |  |  |  | herbicidal efficacy against harmful plants when applied post-emergence (harmful plants [9]): very good herbicidal efficacy
2 | COC(=O)COc1nn(-c2cccc(F)c2)c(-c2ccc(F)cc2)c1C#N [I-012] | 80 | 80 |  | 80 |  |  | 100 | 100 |  |  | 80 | 100 |  | 100 |  | 80 | 80 |  |  |  | Post-emergence action against VIOTR in % (VIOTR [13]): 80%
3 | COC(=O)COc1nn(-c2ccccc2F)c(-c2ccccc2)c1Cl [I-015] |  |  |  | 80 | 90 | 90 | 90 | 90 | 100 |  | 80 |  | 90 | 90 | 90 | 80 |  | 90 | 90 |  | 
4 | COC(=O)COc1nn(-c2ccccc2F)c(-c2ccccc2)c1C#N [I-022] | 80 | 80 | good herbicidal efficacy | 80 | 80 | 80 | 100 | 100 |  | 80 |  | 100 | 100 | 90 | 90 | 80 | 80 | 80 | 100 | 90 | Post-emergence action against POLCO in % (POLCO [16]): 80%; Post-emergence action against ALOMY in % (ALOMY [17]): 80%; Post-emergence action against SETVI in % (SETVI [18]): 80%; Pre-emergence action at 1280 g/ha against ECHCG in % (ECHCG [20]): 80%
5 | COC(=O)COc1nn(-c2cccc(Cl)c2)c(-c2ccc(F)c(F)c2)c1C#N [I-051] |  | 80 |  |  | 90 | 90 |  | 90 |  |  | 80 |  |  |  |  |  | 80 | 80 |  | 90 | Post-emergence action against POLCO in % (POLCO [16]): 80%; Post-emergence action against ALOMY in % (ALOMY [17]): 80%; Post-emergence action against VIOTR in % (VIOTR [13]): 90%
6 | C#Cc1c(OCC(=O)OC)nn(-c2cccc(F)c2)c1-c1cccc(F)c1 [I-069] |  | 80 | good herbicidal efficacy | 90 |  |  | 90 | 90 | 80 |  | 80 |  |  | 90 | 90 |  |  |  | 90 | 100 | Pre-emergence action at 1280 g/ha against ECHCG in % (ECHCG [20]): 80%
7 | CCOC(=O)COc1nn(-c2ccc(F)cc2)c(-c2ccccc2)c1Br [I-072] |  | 80 | good herbicidal efficacy | 80 |  | 80 | 80 | 90 | 90 | 80 |  |  |  | 80 | 90 |  |  |  | 80 | 80 | Post-emergence action against ALOMY in % (ALOMY [17]): 80%; Post-emergence action against SETVI in % (SETVI [18]): 80%; herbicidal efficacy against harmful plants when applied post-emergence (harmful plants [9]): very good herbicidal efficacy; Pre-emergence action against POLCO in % (POLCO [21]): 90%; Pre-emergence action at 1280 g/ha against ALOMY in % (ALOMY [22]): 80%
